Laboratory results as given in patent US20150209327A1, “METHODS FOR THE TREATMENT OF OBESITY USING APREMILAST” (Celgene Corporation, priority 2014, published 2015).

What was measured:
[1] = Apremilast Data Pool: weight change; type: in vivo, human
Description: Similar results of weight loss were reported for the Apremilast Data Pool. A weight decrease was reported during the Placebo-controlled Period (24 weeks) in 3 (0.2%) subjects who received placebo and 26 (0.9%) subjects who received apremilast, including 8 (0.8%) subject in the APR 20 BID group, and 18 (1.1%) subjects in the APR 30 BID group.
The end-of-period value is the last postbaseline value (only through the Placebo-controlled Period for placebo-treated subjects) including data up to 28 days after the last dose of investigational product but excluding the observational follow-up visit.
The end-of-period value is the last postbaseline value (while subjects were receiving apremilast), including data up to 28 days after the last dose of apremilast but excluding the observational follow-up visit.

TNF-α production = assay: Inhibition of TNF-α production in a mouse model; type: in vivo
Description: The test methods were as described in WO 03/080049; Muller et al., J. Med. Chem., 1996, 39:3238; and Muller et al., Bioorg. Med. Chem. Lett., 1999, 9:1625-30.

[2] = system: Phosphodiesterase 4 enzyme; assay: Inhibition of PDE4 (enzyme purified from U937 human monocytic cells); type: biochemical; settings: 1 μM cAMP, 45 min at 30° C.
Description: Inhibition of PDE4: Phosphodiesterase 4 enzyme was purified from U937 human monocytic cells by gel filtration chromatography, and phosphodiesterase reactions were carried out as previously described. See Muller et al., Bioorg. Med. Chem. Lett., 1998, 8(19): 2669-2674. Briefly, reactions were carried out in 96-well deep-well plates in 50 mM Tris HCl pH 7.5, 5 mM MgCl2, 1 μM cyclic adenosine monophosphate (cAMP), plus 10 nM [3H]-cAMP for 45 min at 30° C. The reactions were terminated by boiling, treated with 1 mg/ml snake venom, and separated using AG-1X8 ion exchange resin (BioRad). Reactions consumed less than 15% of available substrate.

PDE7 = PDE7 (Homo sapiens, UniProt Q13946); assay: PDE7 enzyme assay; type: biochemical
Sequence of PDE7 (Q13946 whole entry): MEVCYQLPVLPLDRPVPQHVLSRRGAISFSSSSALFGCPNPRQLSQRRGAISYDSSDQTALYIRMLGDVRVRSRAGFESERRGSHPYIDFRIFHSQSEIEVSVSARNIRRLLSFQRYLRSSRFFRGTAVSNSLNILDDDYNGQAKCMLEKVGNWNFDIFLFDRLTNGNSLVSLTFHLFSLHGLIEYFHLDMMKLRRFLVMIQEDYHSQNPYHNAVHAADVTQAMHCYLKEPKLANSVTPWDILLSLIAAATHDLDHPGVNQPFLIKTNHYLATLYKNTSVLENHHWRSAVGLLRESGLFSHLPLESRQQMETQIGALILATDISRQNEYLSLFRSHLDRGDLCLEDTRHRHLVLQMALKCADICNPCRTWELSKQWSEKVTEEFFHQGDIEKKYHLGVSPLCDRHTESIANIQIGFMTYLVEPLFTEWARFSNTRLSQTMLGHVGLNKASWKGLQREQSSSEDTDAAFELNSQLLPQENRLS
Description: (§1) PDE1, 2, 3 and 5 enzyme assays were prepared as described by Hidaka and Asano. Biochem. Biophys. Acta., 1976, 429:485; see also Nicholsen et al., Trends Pharmaco. Sci., 1991, 12:19. The PDE6 enzyme assay was prepared according to Baehr et al., J. Biol. Chem., 1979, 254:11669 and Gillespie et al., Mol. Pharm., 1989, 36: 773. The PDE7 enzyme assay was prepared according to Bloom and Beavo. Proc. Natl. Acad. Sci. USA, 1996, 93:14188-92.

PDE3 = PDE3 enzyme assay; type: biochemical; settings: at 10 μM
Description: as §1

[3] = 20 mg BID, Apremilast-exposure Period
[4] = 20 mg BID, Apremilast-exposure Period, Apremilast Subjects as Treated, m = 1373
[5] = 20 mg BID, Placebo-controlled Period
[6] = 20 mg BID, Placebo-controlled Period, Subjects as Initially Treated at Week 0, m = 900
[7] = 30 mg BID, Apremilast-exposure Period
[8] = 30 mg BID, Apremilast-exposure Period, Apremilast Subjects as Treated, m = 2268
[9] = 30 mg BID, Placebo-controlled Period
[10] = 30 mg BID, Placebo-controlled Period, Subjects as Initially Treated at Week 0, m = 1541
[11] = APR Total, Apremilast-exposure Period, Apremilast Subjects as Treated, m = 3606
[12] = APR Total, Placebo-controlled Period, Subjects as Initially Treated at Week 0, m = 2591

Structure (SMILES): CCOc1cc([C@@H](CS(C)(=O)=O)N2C(=O)c3cccc(NC(C)=O)c3C2=O)ccc1OC [Apremilast, (+)-2-[1-(3-ethoxy-4-methoxyphenyl)-2-methylsulfonylethyl]-4-acetylaminoisoindoline-1,3-dione]
- observed weight loss of greater than 10%, % subjects [1, 3]: 4.0%
- weight decrease reported, subjects n (%) [1, 3]: 17 (1.2%) n (%)
- Weight % Change Category 0%, n (%) [1, 4]: 125 (9.1) n (%)
- Weight % Change Category <−20%, n (%) [1, 4]: 2 (0.1) n (%)
- Weight % Change Category >0% to ≦5%, n (%) [1, 4]: 410 (29.9) n (%)
- Weight % Change Category >5% to ≦10%, n (%) [1, 4]: 56 (4.1) n (%)
- Weight % Change Category >10% to ≦20%, n (%) [1, 4]: 18 (1.3) n (%)
- Weight % Change Category >20%, n (%) [1, 4]: 0 n (%)
- Weight % Change Category ≧−5% to <0%, n (%) [1, 4]: 565 (41.2) n (%)
- Weight % Change Category ≧−10% to <−5%, n (%) [1, 4]: 144 (10.5) n (%)
- Weight % Change Category ≧−20% to <−10%, n (%) [1, 4]: 53 (3.9) n (%)
- observed weight loss of greater than 10%, subjects n (%) [1, 5]: 17 (1.9%) n (%)
- percentage of subjects with weight change of >−10% to <−5% [1, 5]: 9.3%
- weight decrease reported, subjects n (%) ([1]; 20 mg BID, Placebo-controlled Period (24 weeks)): 8 (0.8%) n (%)
- Weight % Change Category 0%, n (%) [1, 6]: 101 (11.2) n (%)
- Weight % Change Category <−20%, n (%) [1, 6]: 1 (0.1) n (%)
- Weight % Change Category >0% to ≦5%, n (%) [1, 6]: 277 (30.8) n (%)
- Weight % Change Category >5% to ≦10%, n (%) [1, 6]: 262 (2.9) n (%)
- Weight % Change Category >10% to ≦20%, n (%) [1, 6]: 2 (0.2) n (%)
- Weight % Change Category >20%, n (%) [1, 6]: 0 n (%)
- Weight % Change Category ≧−5% to <0%, n (%) [1, 6]: 393 (43.7) n (%)
- Weight % Change Category ≧−10% to <−5%, n (%) [1, 6]: 84 (9.3) n (%)
- Weight % Change Category ≧−20% to <−10%, n (%) [1, 6]: 16 (1.8) n (%)
- mean weight change from baseline ([1]; 20 mg BID, end of the Apremilast-exposure Period): -1.09 kg
- mean weight change from baseline ([1]; 20 mg BID, end of the Placebo-controlled Period, Subjects as Initially Treated at Week 0): -1.01 kg
- observed weight loss of greater than 10%, % subjects [1, 7]: 4.9%
- weight decrease reported, subjects n (%) [1, 7]: 36 (1.5%) n (%)
- Weight % Change Category 0%, n (%) [1, 8]: 162 (7.1) n (%)
- Weight % Change Category <−20%, n (%) [1, 8]: 11 (0.5) n (%)
- Weight % Change Category >0% to ≦5%, n (%) [1, 8]: 610 (26.9) n (%)
- Weight % Change Category >5% to ≦10%, n (%) [1, 8]: 116 (5.1) n (%)
- Weight % Change Category >10% to ≦20%, n (%) [1, 8]: 29 (1.3) n (%)
- Weight % Change Category >20%, n (%) [1, 8]: 5 (0.2) n (%)
- Weight % Change Category ≧−5% to <0%, n (%) [1, 8]: 923 (40.7) n (%)
- Weight % Change Category ≧−10% to <−5%, n (%) [1, 8]: 311 (13.7) n (%)
- Weight % Change Category ≧−20% to <−10%, n (%) [1, 8]: 101 (4.5) n (%)
- observed weight loss of greater than 10%, subjects n (%) [1, 9]: 23 (1.5%) n (%)
- percentage of subjects with weight change of >−10% to <−5% [1, 9]: 11.3%
- weight decrease reported, subjects n (%) ([1]; 30 mg BID, Placebo-controlled Period (24 weeks)): 18 (1.1%) n (%)
- Weight % Change Category 0%, n (%) [1, 10]: 159 (10.3) n (%)
- Weight % Change Category <−20%, n (%) [1, 10]: 1 (0.1) n (%)
- Weight % Change Category >0% to ≦5%, n (%) [1, 10]: 410 (26.6) n (%)
- Weight % Change Category >5% to ≦10%, n (%) [1, 10]: 37 (2.4) n (%)
- Weight % Change Category >10% to ≦20%, n (%) [1, 10]: 8 (0.5) n (%)
- Weight % Change Category >20%, n (%) [1, 10]: 1 (0.1) n (%)
- Weight % Change Category ≧−5% to <0%, n (%) [1, 10]: 729 (47.3) n (%)
- Weight % Change Category ≧−10% to <−5%, n (%) [1, 10]: 174 (11.3) n (%)
- Weight % Change Category ≧−20% to <−10%, n (%) [1, 10]: 22 (1.4) n (%)
- mean weight change from baseline ([1]; 30 mg BID, end of the Apremilast-exposure Period): -1.41 kg
- mean weight change from baseline ([1]; 30 mg BID, end of the Placebo-controlled Period, Subjects as Initially Treated at Week 0): -1.21 kg
- Weight % Change Category 0%, n (%) [1, 11]: 325 (8.3) n (%)
- Weight % Change Category <−20%, n (%) [1, 11]: 14 (0.4) n (%)
- Weight % Change Category >0% to ≦5%, n (%) [1, 11]: 1109 (28.4) n (%)
- Weight % Change Category >5% to ≦10%, n (%) [1, 11]: 179 (4.6) n (%)
- Weight % Change Category >10% to ≦20%, n (%) [1, 11]: 48 (1.2) n (%)
- Weight % Change Category >20%, n (%) [1, 11]: 6 (0.2) n (%)
- Weight % Change Category ≧−5% to <0%, n (%) [1, 11]: 1602 (41.0) n (%)
- Weight % Change Category ≧−10% to <−5%, n (%) [1, 11]: 466 (11.9) n (%)
- Weight % Change Category ≧−20% to <−10%, n (%) [1, 11]: 157 (4.0) n (%)
- Weight % Change Category 0%, n (%) [1, 12]: 280 (10.8) n (%)
- Weight % Change Category <−20%, n (%) [1, 12]: 3 (0.1) n (%)
- Weight % Change Category >0% to ≦5%, n (%) [1, 12]: 741 (28.6) n (%)
- Weight % Change Category >5% to ≦10%, n (%) [1, 12]: 66 (2.5) n (%)
- Weight % Change Category >10% to ≦20%, n (%) [1, 12]: 12 (0.5) n (%)
- Weight % Change Category >20%, n (%) [1, 12]: 1 (<0.1) n (%)
- Weight % Change Category ≧−5% to <0%, n (%) [1, 12]: 1187 (45.8) n (%)
- Weight % Change Category ≧−10% to <−5%, n (%) [1, 12]: 263 (10.2) n (%)
- Weight % Change Category ≧−20% to <−10%, n (%) [1, 12]: 38 (1.5) n (%)
- body weight of the majority of subjects ([1]; Placebo-controlled Period and Apremilast-exposure Period): maintained their body weight within 0% and 5% of baseline
- weight decrease reported, subjects n (%) ([1]; all subjects who received apremilast, Placebo-controlled Period (24 weeks)): 26 (0.9%) n (%)
- EC50, inhibition of TNF-α production in a mouse model (TNF-α production): 0.05 mg/kg
- IC50 [2]: 0.0735 µM
- IC50 (PDE7): 20.5 µM
- % inhibition of PDE3 (PDE3): 20%
